The text below walks through data of ChEMBL document CHEMBL3727358, “Inhibitors of inducible form of 6-phosphofructose-2-kinase” (2014).

pIC50: −log10 of the molar value. Where only a bound is given, the exact number is not on record here.

Sequence of 6-phosphofructo-2-kinase/fructose-2,6-bisphosphatase 3 (Q16875 whole entry): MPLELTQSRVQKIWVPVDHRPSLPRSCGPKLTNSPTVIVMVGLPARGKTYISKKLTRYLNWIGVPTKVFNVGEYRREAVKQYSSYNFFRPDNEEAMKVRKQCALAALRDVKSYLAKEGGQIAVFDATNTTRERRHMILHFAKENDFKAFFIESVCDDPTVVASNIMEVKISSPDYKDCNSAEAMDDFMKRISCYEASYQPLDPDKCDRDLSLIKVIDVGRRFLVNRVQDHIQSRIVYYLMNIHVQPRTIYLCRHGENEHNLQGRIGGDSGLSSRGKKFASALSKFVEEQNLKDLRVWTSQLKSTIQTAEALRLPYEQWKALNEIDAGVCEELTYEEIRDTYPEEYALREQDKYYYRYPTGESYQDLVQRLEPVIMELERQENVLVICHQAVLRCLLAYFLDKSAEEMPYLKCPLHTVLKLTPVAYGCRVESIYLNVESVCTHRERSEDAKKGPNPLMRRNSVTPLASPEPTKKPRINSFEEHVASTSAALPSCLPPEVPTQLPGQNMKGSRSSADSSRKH

The experiment has as its target 6-phosphofructo-2-kinase/fructose-2,6-bisphosphatase 3 (Homo sapiens, UniProt Q16875). Put plainly: Inhibition of iPFK2 (unknown origin) assessed as reduction in enzyme-mediated fructose-6-phosphate phosphorylation by measuring ATP consumption incubated for 3 hrs by luciferase-luciferin-coupled chemiluminescence assay.
By pIC50 is commonly meant the negative decadic logarithm of the IC50, by convention in mol/L. In the case of `COc1cccc(CNc2cc(-c3ccc4occ(C)c4c3)nc(C)n2)c1`, the pIC50 was 6.30. Take `CCc1coc2ccc(-c3cc(N[C@@H](C)c4cccc(OC)c4)nc(C)n3)cc12`: the negative-log IC50 (pIC50) was below 6.00. On to `Cc1nc(NCCCN(C)c2ccccc2)cc(-c2ccc3ncsc3c2)n1`, for which the pIC50 was below 6.00. For `COc1cccc(-c2cc(NC(C)c3cccc(S(N)(=O)=O)c3)nc(C)n2)c1` (stereo unspecified) the value was below 6.00; for `COc1cccc([C@H](C)Nc2cc(-c3cccc(OC(F)(F)F)c3)nc(C)n2)c1`, below 6.00. The figure for `Cc1nc(NC(C)c2ccnc(Cl)c2)cc(-c2ccc3ncsc3c2)n1` (stereo unspecified) is 6.30; for `CNC(=O)COc1cccc(C(C)Nc2cc(-c3cccc(OC)c3)nc(C)n2)c1` (stereo unspecified) it is 6.30; for `Cc1nc(NC(C)c2cccc(OCc3noc(C)n3)c2)cc(-c2ccc3ncsc3c2)n1` (stereo unspecified) it is 6.30. `COc1cccc(-c2cc(NC(C)c3cccc(S(=O)(=O)NCC#N)c3)nc(C)n2)c1` (stereo unspecified): the pIC50 is 6.30. The figure for `Cc1nc(N[C@@H]2CCCc3ccccc32)cc(-c2cccc(C=O)c2)n1` is below 6.00; for `CCOC(=O)CCCOc1cccc(C(C)Nc2cc(-c3ccc4ccn(C)c4c3)nc(C)n2)c1` (stereo unspecified) it is 6.30; for `Cc1ccc([C@H](C)Nc2cc(-c3ccc4ccn(C)c4c3)nc(C)n2)cc1` it is 6.30. The figure for `CNC(=O)COc1cccc(C(C)Nc2cc(-c3ccc4c(c3)OCO4)nc(C)n2)c1` (stereo unspecified) is 6.30; for `Cc1nc(NC[C@@H](C)c2ccccc2)cc(-c2ccc3ncsc3c2)n1` it is below 6.00. For `CCc1cccc(-c2cc(N[C@@H]3CCCc4ccccc43)nc(C)n2)c1` the value was below 6.00; for `COc1cccc(-c2cc(NC(C)c3cccc(Br)c3)nc(C)n2)c1` (stereo unspecified), below 6.00; for `CCOc1cccc(-c2cc(N[C@@H]3CCCc4ccccc43)nc(C)n2)c1`, below 6.00.

On to `COc1ccc2c(c1)C(Nc1cc(-c3ccc4ncsc4c3)nc(C)n1)CCC2` (stereo unspecified), for which the pIC50 was below 6.00.

For `Cc1nc(NC2Cc3ccccc3C2)cc(-c2ccc3ncsc3c2)n1`, the negative logarithm of the IC50 (pIC50) is 6.30.

In the case of `CCCCC(CC)CNc1cc(-c2ccc3ncsc3c2)nc(C)n1` (stereo unspecified), the pIC50 was 6.30. For `COc1cccc(-c2cc(NC(C)c3cccc(S(=O)(=O)N(CC#N)C(=O)OC(C)(C)C)c3)nc(C)n2)c1` (stereo unspecified), the pIC50 is below 6.00.

With `C#CCNS(=O)(=O)c1cccc(C(C)Nc2cc(-c3ccc4ncsc4c3)nc(C)n2)c1` (stereo unspecified), the negative logarithm of the IC50 (pIC50) was 6.30. The figure for `Cc1nc(NCCc2ccncc2)cc(-c2ccc3ncsc3c2)n1` is below 6.00; for `COc1cccc(-c2cc(NC(C)c3cccc(O)c3)nc(C)n2)c1` (stereo unspecified) it is below 6.00.

In the case of `Cc1nc(N[C@@H](C)c2ccc(Cl)cc2)cc(-c2ccc3ccn(C)c3c2)n1`, the pIC50 is below 6.00. The figure for `Cc1nc(N[C@@H]2CCCc3ccccc32)cc(-c2cccnc2)n1` is below 6.00.

Consider `CNC(=O)COc1cccc(C(C)Nc2cc(-c3cccc(OC)c3Cl)nc(C)n2)c1` (stereo unspecified), for which the negative logarithm of the IC50 (pIC50) is 6.30. For `CCOC(=O)CCCOc1cccc(C(C)Nc2cc(-c3ccc4ncsc4c3)nc(C)n2)c1` (stereo unspecified) the value was below 6.00; for `Cc1nc(NCc2cc(-c3ccccc3)no2)cc(-c2ccc3ncsc3c2)n1`, below 6.00. On to `Cc1ccc([C@H](C)Nc2cc(-c3ccc4occ(C)c4c3)nc(C)n2)cc1`, for which the pIC50 was 6.30. For `Cc1nc(NC(C)c2cccc(C#N)c2)cc(-c2ccc3ncsc3c2)n1` (stereo unspecified), the pIC50 is 6.30. In the case of `COc1cccc([C@H](C)Nc2cc(-c3ccnc(C)c3)nc(C)n2)c1`, the negative-log IC50 (pIC50) is below 6.00. Take `Cc1nc(NCCc2c[nH]cn2)cc(-c2ccc3ncsc3c2)n1`: the pIC50 is below 6.00. As for `Cc1nc(N[C@@H]2CCCc3ccccc32)cc(-c2ccncc2)n1`, the pIC50 was below 6.00. The figure for `Cc1nc(N[C@H](C)c2cccc(-c3cnn(C)c3)c2)cc(-c2ccc3occ(C)c3c2)n1` is 6.30; for `CCc1coc2ccc(-c3cc(NC(C)c4cccc(O)c4)nc(C)n3)cc12` (stereo unspecified) it is below 6.00; for `Cc1nc(NCC2CCCN(C(=O)OC(C)(C)C)C2)cc(-c2ccc3ncsc3c2)n1` (stereo unspecified) it is below 6.00. For `Cc1nc(NC(C)c2cccc(-c3noc(C)n3)c2)cc(-c2ccc3ncsc3c2)n1` (stereo unspecified) the value was below 6.00. For `Cc1nc(NC(C)c2cccc(O)c2)cc(-c2ccc3ncsc3c2)n1` (stereo unspecified) the value was 6.30; for `Cc1nc(NC(C)c2cccc(-c3cnn(C)c3)c2)cc(-c2ccc3[nH]ccc3c2)n1` (stereo unspecified), 6.30. Consider `Cc1nc(NC[C@@H]2CCCN(C(=O)OC(C)(C)C)C2)cc(-c2ccc3ncsc3c2)n1`, for which the pIC50 was below 6.00.

As to `Cc1nc(N[C@@H]2CCCc3ccccc32)cc(-c2cccc(CO)c2)n1`, the pIC50 was below 6.00. For the compound `Cc1nc(N[C@@H]2CCCc3ccccc32)cc(-c2ccc3c(c2)OCCN3C)n1`, the pIC50 is below 6.00. With `CC(=O)c1cccc(-c2cc(N[C@@H]3CCCc4ccccc43)nc(C)n2)c1`, the pIC50 was below 6.00. The figure for `COc1cccc(C(C)Nc2cc(-c3ccc4occ(C)c4c3)nc(C)n2)c1F` (stereo unspecified) is below 6.00; for `COC(=O)CNc1cccc(C(C)Nc2cc(-c3cccc(OC)c3)nc(C)n2)c1` (stereo unspecified) it is below 6.00. For `COc1cccc([C@H](C)Nc2cc(-c3cccc(OC)c3F)nc(C)n2)c1`, the negative logarithm of the IC50 (pIC50) is 6.30. The figure for `COc1cccc([C@H](C)Nc2cc(-c3cccc(C)c3)nc(C)n2)c1` is 6.30; for `COC(=O)CNS(=O)(=O)c1cccc(C(C)Nc2cc(-c3cccc(OC)c3)nc(C)n2)c1` (stereo unspecified) it is below 6.00. Consider `COc1cccc([C@H](C)Nc2cc(-c3ccc4c(ccn4C)c3)nc(C)n2)c1`, for which the negative logarithm of the IC50 (pIC50) is below 6.00. On to `Cc1nc(N[C@@H]2CCCc3ccccc32)cc(-c2ccc3ccccc3c2)n1`, for which the pIC50 was 6.30. The figure for `COc1cccc(-c2cc(NC(C)c3cccc(OCC#N)c3)nc(C)n2)c1` (stereo unspecified) is 6.30; for `CCn1ccc2ccc(-c3cc(N[C@@H](C)c4cccc(OC)c4)nc(C)n3)cc21` it is below 6.00. In the case of `COc1cccc([C@H](C)Nc2cc(-c3ccncc3)nc(C)n2)c1`, the pIC50 was below 6.00. On to `Cc1cc(COc2cccc(C(C)Nc3cc(-c4cc5ccccc5n4C)nc(C)n3)c2)n(C)n1` (stereo unspecified), for which the negative-log IC50 (pIC50) is 6.30. The figure for `Cc1cccc(-c2cc(N[C@@H]3CCCc4ccccc43)nc(C)n2)c1` is 6.30; for `COc1ccc2c(c1)CCCC2Nc1cc(-c2ccc3ncsc3c2)nc(C)n1` (stereo unspecified) it is 6.30; for `COc1cccc([C@H](C)Nc2cc(-c3cccnc3)nc(C)n2)c1` it is below 6.00. With `COc1cccc2c1CCCC2Nc1cc(-c2ccc3ncsc3c2)nc(C)n1` (stereo unspecified), the negative-log IC50 (pIC50) was below 6.00. Regarding `Cc1nc(NC(C)c2cccnc2)cc(-c2ccc3ncsc3c2)n1` (stereo unspecified), the pIC50 is 6.30. In the case of `COCCn1ccc2ccc(-c3cc(N[C@@H]4CCCc5ccccc54)nc(C)n3)cc21`, the negative logarithm of the IC50 (pIC50) is below 6.00. As to `COc1cc(-c2cc(NC(C)c3cccc(OCC(N)=O)c3)nc(C)n2)ccc1C` (stereo unspecified), the pIC50 was 6.30. For `Cc1nc(NC(C)c2cccc(OCCCC(=O)O)c2)cc(-c2ccc3ncsc3c2)n1` (stereo unspecified) the value was 6.30. The figure for `Cc1nc(NC(C)c2cccc(OCC(=O)O)c2)cc(-c2ccc3ccn(C)c3c2)n1` (stereo unspecified) is 6.30.

For the compound `CCOC(=O)CNC(=O)COc1cccc(C(C)Nc2cc(-c3ccc4ccn(C)c4c3)nc(C)n2)c1` (stereo unspecified), the negative logarithm of the IC50 (pIC50) was 6.30. The figure for `Cc1cccc(-c2cc(NC(C)c3cccc(-c4cnn(C)c4)c3)nc(C)n2)c1` (stereo unspecified) is 6.30; for `CC(C)CCC(C)NC1C=C(c2ccc3ncsc3c2)N=CN1C` (stereo unspecified) it is below 6.00; for `Cc1nc(N[C@@H]2CCCc3ccccc32)cc(-c2cn[nH]c2)n1` it is below 6.00. For `COc1cccc([C@H](C)Nc2cc(-c3ccc(C)c(OC)c3)nc(C)n2)c1` the value was 6.30. For `Cc1nc(NC(C)c2cccc(OCC(=O)N3CCOCC3)c2)cc(-c2ccc3ncsc3c2)n1` (stereo unspecified), the negative-log IC50 (pIC50) was 6.30. The figure for `COC(=O)COc1cccc(C(C)Nc2cc(-c3cccc(OC)c3)nc(C)n2)c1` (stereo unspecified) is below 6.00; for `Cc1nc(N[C@@H]2CCCc3ccccc32)cc(-c2cccc(O)c2)n1` it is 6.30. On to `Cc1nc(NCCCC(C)(C)CO)cc(-c2ccc3ncsc3c2)n1`, for which the pIC50 was below 6.00. The figure for `COc1cc(-c2cc(NC(C)c3cccc(OCc4ccn(C)n4)c3)nc(C)n2)ccc1C` (stereo unspecified) is 6.30; for `COc1cccc(-c2cc(N[C@@H]3CCCc4ccccc43)nc(C)n2)c1Cl` it is 6.30; for `Cc1nc(NC(C)c2cccc(OCc3ccn[nH]3)c2)cc(-c2ccc3ncsc3c2)n1` (stereo unspecified) it is 6.30.

As to `COc1ccc(Cl)c(-c2cc(N[C@@H]3CCCc4ccccc43)nc(C)n2)c1`, the pIC50 was below 6.00. The figure for `Cc1ccc2c(c1)C(Nc1cc(-c3ccc4ncsc4c3)nc(C)n1)CCO2` (stereo unspecified) is below 6.00; for `Cc1nc(N[C@H]2CCOc3ccccc32)cc(-c2ccc3ncsc3c2)n1` it is below 6.00. The figure for `Cc1nc(NCc2cccc(-n3cccc3)c2)cc(-c2ccc3ncsc3c2)n1` is below 6.00. `Cc1nc(NC(C)c2cccc(OC(C)(C)C(N)=O)c2)cc(-c2ccc3ncsc3c2)n1` (stereo unspecified): the negative-log IC50 (pIC50) was 6.30. As for `Cc1nc(N[C@@H]2CCCc3ccccc32)cc(-c2cncnc2)n1`, the pIC50 is below 6.00.

For `CCc1coc2ccc(-c3cc(NC(C)c4cccc(OCc5cc(C)nn5C)c4)nc(C)n3)cc12` (stereo unspecified), the negative logarithm of the IC50 (pIC50) was below 6.00. The figure for `COc1cccc(-c2cc(NC3CCc4ccccc43)nc(C)n2)c1Cl` (stereo unspecified) is 6.30; for `Cc1nc(NC(C)c2cccc(C(=N)N)c2)cc(-c2ccc3ncsc3c2)n1` (stereo unspecified) it is 6.30; for `COc1cccc([C@H](C)Nc2cc(-c3cccc(F)c3)nc(C)n2)c1` it is 6.30.

Consider `COc1cccc(-c2cc(N[C@@H](C)c3cccc(C(F)(F)F)c3)nc(C)n2)c1`, for which the pIC50 is below 6.00. The figure for `Cc1cc(C)c2c(c1)C(Nc1cc(-c3ccc4ncsc4c3)nc(C)n1)CCC2` (stereo unspecified) is below 6.00; for `Cc1nc(NC(C)c2ccc(F)c(OCc3ccnn3C)c2)cc(-c2ccc3ncsc3c2)n1` (stereo unspecified) it is below 6.00; for `COc1cccc(-c2cc(NC(C)c3cccc(Br)c3)nc(C)n2)c1Cl` (stereo unspecified) it is 6.30.

`COc1ccc(F)c(-c2cc(N[C@@H]3CCCc4ccccc43)nc(C)n2)c1`: the pIC50 is below 6.00.
